Experimental data: patent US12497359B2, “Acrylamide derivatives” (NRG Therapeutics Ltd, priority 2020, dated 2025)
In brackets after ≈: the same amount, converted by molar mass.

Columns and labels:
mPTP [1] = assay: mPTP activity assay in isolated rat liver mitochondria (Ca2+ retention, Fluo5N, FLIPR); format: biochemical; details: isolated rat liver mitochondria; average value from multiple experiments (n ≥ 2)
Summary of the method: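 Freshly isolated female Sprague Dawley rat liver mitochondria in pH 7.4 buffer with 10 mM succinate, 1 μM rotenone and 2 μM Fluo5N, preincubated 10 min at RT with compound (30 μM to 1 nM). CaCl2 bolus (75 μM) added; IC50 from 10 min fluorescence, normalised to DMSO and 5 μM cyclosporin A.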

mPTP [2] = assay: mPTP human platelet mitochondria membrane potential flow cytometry assay; format: cell-based; details: stimulated human platelets
Experimental: The mPTP cell based assay was performed using a mitochondria membrane potential flow cytometry assay in stimulated human platelets. Simulation of platelets results in the rapid influx of Ca^2+ across the platelet membrane. The Ca^2+ is then sequestered by mitochondria until the threshold for mPTP opening is reached, at which point the pore opens and the mitochondrial membrane potential is dissipated. Changes in mitochondria membrane potential due to mPTP opening can be quantified in live platelets using standard mitochondrial membrane potential dyes e.g. 3,3′-dihexyloxacarbocyanine Iodide; DiOC6 (3), enabling pharmacological characterisation of mPTP inhibitors.
Fresh human blood (20 ml) was collected from consented donors into 3.2% sodium citrate. Platelets were isolated by centrifugation at 200 g for 20 min at room temperature, then the platelet rich plasma layer transferred to a fresh tube. Prostaglandin 12 is added to the platelets at a final concentration of 20 ng/ml. After centrifugation at 640 g for 10 min, the platelet rich pellet was resuspended in 4 ml HEPES assay buffer (137 mM NaCl, 2.7 mM KCl, 11.9 mM NaHCO3, 0.42 mM NaH2PO4, 1 mM MgCl2, 5.5 mM glucose, 0.1% bovine serum albumin, 10 mM HEPES adjusted to pH 7.4) and stored on ice.
Test compounds were prepared from 10 mM stocks in DMSO and serially diluted in assay buffer containing 0.4% DMSO and 25 μl transferred into a 96 well plate. Platelets were loaded with the mitochondrial membrane potential dye DiOC6 (3) (3,3′-dihexyloxacarbocyanine Iodide; Invitrogen) at 200 nM for 30 min, then 50 μl plated into each well of the 96 well plate containing diluted test compound and incubated for 15 min. Control wells included DMSO (0.1% final concentration) only or 5 μM cyclosporin A. Platelets were then stimulation with the addition of assay buffer (25 μl) containing CaCl2, alpha thrombin and Convulxin to achieve a final concentrations of 2 mM, 0.017 U/ml and 0.167 μg/ml respectively and incubated for 14 min. The reaction was stopped by the addition of 25 μl 15 mM EDTA in assay buffer. The mitochondrial membrane potential across the population of platelets in each well was then quantified by flow cytometry using a Guava easyCyte 5 Benchtop Flow Cytometer with 3000 events per well. The percentage of platelets with a depolarised mitochondrial membrane potential was calculated for each well. A pIC50 for each compound was then calculated using a standard four parameter curve fit model (GraphPad Prism).

mPTP [3] = assay: mPTP activity assay in isolated rat brain mitochondria; format: biochemical; details: isolated rat brain mitochondria
Experimental: MPTP activity was measured in brain mitochondria freshly isolated from female Sprague Dawley (250 to 300 gram) rats. Anaesthetised rats were perfused in-situ with ˜40 ml cold Dulbecco's Phosphate Buffered Saline (DPBS), then brains dissected and transferred into 30 ml Isolation Buffer (225 mM mannitol, 75 mM sucrose, 1 mM EGTA, adjusted to pH 7.4 with 1 M NaOH). The brain was minced using tweezers and a scalpel into ˜5 mm pieces then transferred into a 50 ml Potterton Dounce homogenization tube on ice containing 10 ml ice-cold isolation buffer (as above with addition of Complete Protease inhibitor; 1 tablet per 50 ml buffer). Homogenisation was carried out using a teflon pestle at 1800 rpm. The slurry was centrifuged at 2000 g for 10 min at 4° C., then the supernatant centrifuged at 12,000 g for 9 min. The pellet was resuspended with a dounce homogeniser in isolation buffer as above but with the addition of 0.02% digitonin, centrifuged at 12,000 g for 11 min and finally resuspended in 5 ml modified isolation buffer (as above but with EGTA reduced to 0.1 mM).
Test compounds were prepared in 384 well polypropylene assay plates as described above for the liver mitochondria assay. A stock mitochondria/Fluo5N assay solution was prepared in 5.6 ml assay buffer (120 mM mannitol, 40 mM MOPS, 5 mM KH2PO4, 60 mM KCl, 10 mM pyruvate, 2 mM malate, 2 mM MgCl2, 20 μM ADP, 1.26 μM oligomycin A, adjusted to pH 7.4) supplemented with Fluo5N pentapotassium salt (2 μM) and 1 ml mitochondria suspension, then transferred (15 μl) into the assay plate containing test compounds and incubated for 10 min at RT. Assay plates were then transferred to a FLIPR Tetra plate reader (Molecular Devices). Dye fluorescence was then measured every 3 sec for a total of 10 min. After 12 sec, a 2.5 μl bolus of Ca2+(75 μM) was added from a source plate containing 675 μM CaCl2 in FLIPR assay buffer. IC50 values for test compounds were calculated using the fluorescence value collected at the 10 min timepoint with % inhibition calculated using the DMSO control and cyclosporin A values at […].

[4] = Microsomal clearance assay, rat liver microsomes; format: in vitro ADME; details: average value from two experiments, read-out: Rat liver microsomes intrinsic clearance (CLint)
Experimental: The microsomal stability of test compounds was evaluated using rat liver microsomes (BioIVT) with and without the cofactors nicotinamide adenine dinucleotide phosphate (NADPH) and uridine-diphosphate-glucuronic acid (UDPGA). Reactions were performed in a final volume of 250 μl pre-warmed (37° C.) 100 mM phosphate buffer containing 5 mM MgCl2, 0.025 mg/ml alamethicin, and 0.5 mg/ml rat liver microsomes. NADPH and UDPGA were included at 1 mM and 2 mM respectively, where appropriate. Reactions were started with the addition of 1 μM (final concentration) test compound. Verapamil was used as the positive control. Solutions were incubated in a water bath at 37° C. and aliquots collected at 0.5, 5, 15, 30 and 60 min. Reactions were stopped by the addition of 5 volumes of cold acetonitrile with internal standards (200 nM caffeine and 100 nM tolbutamide). Samples were centrifuged at 3220 g for 40 min. An aliquot of supernatant was diluted 1:1 In ultra-pure H20, then used for LC-MS/MS analysis. Peak areas were determined from extracted ion chromatograms. The slope value, k, was determined by linear regression of the natural logarithm of the remaining percentage of the parent drug vs. incubation time curve. The in vitro half-life (in vitro t1/2) was determined from the slope value: in vitro t1/2=0.693/k. Conversion of the in vitro t1/2 (min) into the in vitro intrinsic clearance (in vitro CLint, in μL/min/mg protein) was done using the following equation (mean of duplicate determinations): in vitro Clint=(0.693/t1/2)*(Vol of incubation (μl)/amount of protein (mg)).

PBS solubility = format: physicochemical; details: aqueous buffer, kinetic from dmso stock; PBS pH 7.4, 2 hr at 25° C.
Summary of the method: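 Compound from 10 mM DMSO stock was added in duplicate to FaSSIF or PBS (pH 7.4) and shaken at 1100 rpm for 2 hr at 25 °C. After filtration, the filtrate was quantified by LC-MS/MS with internal standard against a standard of known concentration.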

| SMILES | mPTP Rat liver pIC50* (mPTP [1]) | mPTP Human platelets pIC50 (mPTP [2]) | mPTP Rat brain pIC50 (mPTP [3]) | microsomal CLint at 1 µM [4] [µL/min/mg] | solubility at 2 h (PBS solubility) [µM] |
| --- | --- | --- | --- | --- | --- |
| Cc1c(F)cccc1NC(=O)/C=C/c1ccc2cn[nH]c2c1 [Comparative Example 1, (E)-N-(2-methyl-3-fluorophenyl)-3-(1H-indazol-6-yl)acrylamide, reference compound] | 8.0 | 6.9 | 7.6 |  |  |
| O=C(/C=C/c1ccc2cn[nH]c2c1)NC1CCc2ccc(F)cc21 (stereo not shown) [Example 6, (E)-N-(6-fluoro-2,3-dihydro-1H-inden-1-yl)-3-(1H-indazol-6-yl)acrylamide] | 6.0 | 4.9 |  | 59 | 9.1 (≈ 2.92 µg/mL) |
